“And” between values parts separate entries of the source, which are not always exact repeats. Identical values can stand only once. Like-named read-outs stand apart in the source and are kept apart here. Values belong to the compound of their own block, whether it stands above or below them.
Key:
[1] = test system: Plasmodium falciparum (KI), erythrocytic stages; test: In vitro growth inhibition assay of P. falciparum, [3H]-hypoxanthine incorporation; type: cell-based
Source text: (§1) Each of the nucleoside analogues was examined for in vitro activity against four parasites, T.b. rhodesiene, T. cruzi, L. donovoni and P. falciparum, as well as for cytotoxicity toward the L6 rat myoblast cell line.
(§2) All IC50 values are expressed as micromolar. Cytotoxicity (L6 rat myoblast cells); average of duplicate determinations. Trypanosoma brucei rhodesiense (STIB900); average of duplicate determinations. Selectivity index for T.b. rhodesiense (SIr); expressed as the ratio [IC50 (L6/IC50 (T.b. rhodesiense)]. Plasmodium falciparum ([…], resistant to chloroquine); average of duplicate determinations. Selectivity index for P. falciparum (SIp), expressed as the ratio [IC50 (L6/IC50 (P. falciparum)]. Leishmania donovani (MHOM/SD/62/IS-CL2D) axenic amastigotes; average of duplicate determinations. Selectivity index for L. donovani (SIL), expressed as the ratio [IC50 (L6/IC50 (L. donovani)]. Trypanosoma cruzi; average of duplicate determinations. Selectivity index for T. cruzi (SIC), expressed as the ratio [IC50(L6/IC50(T. cruzi)]. IA. Nucleoside analogs designed to be activated via Pathway I. IB. Nucleoside analogs designed to be activated via Pathway II. Phth=phthalimido.
In vitro growth inhibition assay of P. falciparum (KI). The determination of IC50 values against erythrocytic stages of P. falciparum was carried out in duplicate using the [^3H]-hypoxanthine incorporation assay.^58,59

[2] = test system: Trypanosoma brucei rhodesiense (STIB900); test: In vitro growth inhibition assay of T.b. rhodesiense (STIB900), Alamar blue; type: cell-based
Source text: as §1, §2
Preparation of compounds for assay. Compounds were dissolved in 100% dimethyl sulfoxide (DMSO) and diluted in the culture medium prior to the in vitro assay. The DMSO concentration never exceeded 1% in the in vitro Alamar Blue assays at the highest drug concentration.
In vitro growth inhibition assay of T.B. rhodesiense (STIB900). IC50 values were determined using the Alamar blue assay and were carried out twice independently and in duplicate as described.^57

Trypanosoma cruzi = test: In vitro activity against T. cruzi; type: cell-based; settings: for IC50: Trypanosoma cruzi
Source text: as §1, §2

[3] = test system: Leishmania donovani (MHOM/SD/62/IS-CL2D) axenic amastigotes; test: In vitro growth inhibition assay of L. donovani axenic amastigotes, CellTiter; type: cell-based; settings: for IC50: Leishmania donovani, axenic amastigotes, average of duplicate determinations, read-out: IC50 against L. donovani
Source text: as §1, §2
In vitro growth inhibition assay of L. Donovani. Axenic amastigotes of L. Donovaniwere adapted from promastigotes and grown in the amastigote medium previously described.^60 The tetrazolium dye-based CellTiter reagent (Promega, Madison, Wis.) was used to assess parasite growth.^61

[4] = In vitro cytotoxicity assay (L6 rat myoblast cells), Alamar blue; type: cell-based; settings: read-out: Cytotoxicity IC50 toward L6 mammalian cell line
Source text: as §1, §2
In vitro cytoxicity assay (L6 Rat Myoblast cells). IC50 values were determined using the Alamar blue assay^62 and were carried out twice independently.

L. donovani = settings: literature ref. 55; cited from earlier work
T.b. rhodesiense = settings: literature ref. 30; cited from earlier work
T.b gambiense = settings: literature ref. 30; cited from earlier work
Leishmania donovani [5] = settings: literature ref. 29; cited from earlier work
Leishmania donovani [6] = settings: literature ref. 29; cited from earlier work; remark: listed apart in the source
[7] = average of duplicate determinations, read-out: IC50 against T. cruzi

melting point: 75 to 77 °C
SMILES: CC(=O)O[C@@H]1[C@H](OC(C)=O)[C@@H](CN=[N+]=[N-])O[C@H]1n1cnc2c(N)nc(Cl)nc21 [Compound 41, 2′,3′-Di-O-Acetyl-5′-azido-2-chloro-5′-deoxyadenosine]

melting point: 222 to 223 °C
SMILES: [N-]=[N+]=NC[C@H]1O[C@@H](n2cnc3c(N)nc(Cl)nc32)[C@H](O)[C@@H]1O [Compound 49, 5′-Azido-2-chloro-5′-deoxyadenosine]

melting point: 193 to 194 °C
SMILES: CNc1nc(C#N)nc2c1ncn2[C@@H]1O[C@H](CSC)[C@@H](O)[C@H]1O [Compound 73, 2-Cyano-5′-deoxy-N^6-methyl-5′-(methylthio)adenosine]

IC50 [3]: 122 nM
SMILES: CCCCCCCCCCCCCCCCOP(=O)([O-])OCC[N+](C)(C)C [miltefosine, reference compound]

melting point: 237 to 239 °C
SMILES: CC(=O)O[C@@H]1[C@H](OC(C)=O)[C@@H](CN2C(=O)c3ccccc3C2=O)O[C@H]1n1cnc2c(N)nc(F)nc21 [Compound 44, 2′,3′-Di-O-acetyl-5′-deoxy-2-fluoro-5′-phthalimidoadenosine]

melting point: 168 to 169 °C
SMILES: CSC[C@H]1O[C@@H](n2cnc3c(N)nc(NN)nc32)[C@H](O)[C@@H]1O [Compound 58, 5′-Deoxy-2-hydrazino-5′-(methylthio)adenosine]

melting point: 184 to 185 °C
SMILES: CSC[C@H]1O[C@@H](n2cnc3c(N)nc(C#N)nc32)[C@H](O)[C@@H]1O [Compound 71, 2-Cyano-5′-deoxy-5′-(methylthio)adenosine]

IC50 (Trypanosoma cruzi; standard drug listed in the table, read-out: IC50 against T. cruzi (standard)): 427 nM
SMILES: O=C(Cn1ccnc1[N+](=O)[O-])NCc1ccccc1 [benznidazole, reference compound]

melting point: 193 to 194 °C
SMILES: CNc1nc(C#N)nc2c1ncn2[C@@H]1O[C@H](C)[C@@H](O)[C@H]1O [Compound 72, 2-Cyano-5′-deoxy-N^6-methyladenosine]

The remaining lines, values behind:

SMILES: CSC[C@H]1O[C@@H](n2cnc3c(N)nc(F)nc32)[C@H](O)[C@@H]1O [ACT-51, 5′-Deoxy-2-fluoro-5′-(methylthio)adenosine]
Activity against P. falciparum (in words) [1]: strong activity
Activity against Trypanosoma brucei (in words) [2]: strong activity
IC50 (Trypanosoma cruzi; [7]): 2600 nM
Activity against L. donovani (in words) [3]: strong activity
IC50 [4]: 584 nM

SMILES: CSC[C@H]1O[C@@H](n2cnc3c(N(C)N=O)nc(F)nc32)[C@H](O)[C@@H]1O [ACT-88, 5′-Deoxy-2-fluoro-N^6-methyl-5′-methylthio-N^6-nitrosoadenosine]
IC50 ([1]; Plasmodium falciparum, read-out: IC50 against Plasmodium falciparum): 110 nM
Selectivity index for P. falciparum (SIp) ([1]; ratio IC50 (L6)/IC50 (P. falciparum)): 983 and 1254
Activity against Trypanosoma brucei (in words) [2]: absence
Activity against Trypanosoma cruzi (in words) (Trypanosoma cruzi): absence
Activity against L. donovani (in words) [3]: absence

SMILES: CC(=O)O[C@@H]1[C@H](OC(C)=O)[C@@H](CN2C(=O)c3ccccc3C2=O)O[C@H]1n1cnc2c(N)nc(Cl)nc21 [Compound 45, 2′,3′-Di-O-acetyl-2-chloro-5′-deoxy-5′-phthalimidoadenosine]
melting point: 256 °C

SMILES: CC(=O)O[C@@H]1[C@H](OC(C)=O)[C@@H](CI)O[C@H]1n1cnc2c(N)nc(F)nc21 [Compound 46, 2′,3′-Di-O-acetyl-5′-deoxy-2-fluoro-5′-iodoadenosine]
melting point: 181 to 182 °C

SMILES: CC(=O)O[C@@H]1[C@H](OC(C)=O)[C@@H](CI)O[C@H]1n1cnc2c(N)nc(Cl)nc21 [Compound 47, 2′,3′-Di-O-acetyl-2-chloro-5′-deoxy-5′-iodoadenosine]
melting point: 93 °C

SMILES: Nc1nc(Cl)c2ccn(C3O[C@H](CO)[C@@H](O)[C@H]3O)c2n1 (stereo partly drawn) [ACT-91, 2-Amino-6-chloro-7-deaza-9-(D-ribofuranosyl)purine]
IC50 ([2]; Trypanosoma brucei, STIB900, average of duplicate determinations, read-out: IC50 against T.b. rhodesiense): 130 nM
IC50 (Trypanosoma cruzi; [7]): 3400 nM
Selectivity index for T. cruzi (SIC) (Trypanosoma cruzi; ratio IC50 (L6)/IC50 (T. cruzi)): 48
melting point: 172 to 173 °C
IC50 [3]: 60 nM
Selectivity index for L. donovani (SIL) ([3]; ratio IC50 (L6)/IC50 (L. donovani)): 2720 and 2717

SMILES: O=C1N=CN=C2C([C@@H]3O[C@H](CO)[C@@H](O)[C@H]3O)=CN=C12 [9-deaza-inosine]
Activity against L. donovani in a squirrel monkey in vivo model (L. donovani): activity
Activity against T.b. rhodesiense (T.b. rhodesiense): active
Activity against T.b gambiense (T.b gambiense): active

SMILES: O=c1[nH]cnc2c([C@@H]3O[C@H](CO)[C@@H](O)[C@H]3O)n[nH]c12 [Formycin B]
Inhibition of Leishmania donovani in vitro (Leishmania donovani [5]): inhibits
Activity against T.b. rhodesiense (T.b. rhodesiense): active
Therapeutic activity in a hamster model (Leishmania donovani [6]): therapeutically active
Activity against T.b gambiense (T.b gambiense): active
